Data: patent publication US9023789B2, “Amylin analogs and pharmaceutical compositions thereof” (Novo Nordisk A/S, priority 2012, dated 2015)
Like-named read-outs stand apart in the source and are kept apart here. Numbered stars: 1 amine (or outer) side, 2 acyl side, 3 side chain; on linkers, the order of the positions; unused ones are H or OH. Bridge positions count the residues as written; N and C are the ends. Peptide text beside a SMILES is read from it. * marks the point of attachment. C20 diacid = O=C(O)CCCCCCCCCCCCCCCCCCC(=O)*; γGlu = O=C(O)[C@H](CCC(=O)[*:2])N[*:1]

Assays:
[1] = molecular target: T1, human amylin 3(a) receptor (human calcitonin receptor + RAMP-3) in BHK570 cells (Homo sapiens, UniProt O60896+P30988); test: ASSAY (II)a functional assay, human amylin receptor (CRE luciferase); assay type: cell-based
T1 construct: expressed in transfected cells
Description: 1. Luciferase Assay Outline
Activation of calcitonin and amylin (coexpression of calcitonin receptor and receptor activity modifying proteins (RAMP)) receptors lead to increased intracellular concentrations of cAMP. Consequently, transcription is activated by promoters containing multiple copies of the cAMP response element (CRE). It is thus possible to measure amylin activity by the use of a CRE luciferase reporter gene introduced into BHK cells also expressing calcitonin or amylin receptors.
2. Construction of Calcitonin (a)- and Amylin 3(a)-Receptor/CRE-Luc Cell Line.
The cell line was further transfected with RAMP-3, using standard methods. This turns the calcitonin receptor into an amylin 3(a) receptor. Methotrexate, Neomycin, and Hygromycin are selection markers for luciferase, the calcitonin receptor, and RAMP-3, respectively.
To perform activity assays, BHK calcitonin (a) receptor- or amylin 3(a)-receptor/CRE-luc cells were seeded in white 96 well culture plates at a density of about 20.000 cells/well. […] After incubation overnight at 37° C. and 5% CO2, the growth medium was replaced by 50 μl/well assay medium (DMEM (without phenol red), Glutamax™, 10% FBS, and 10 mM Hepes, pH 7.4). Further, 50 μl/well of standard or sample in assay buffer were added. After 3 hours incubation at 37° C. and 5% CO2, the assay medium with standard or sample were removed and replaced by 100 μl/well PBS. Further, 100 μl/well LucLite™ was added. The plates were sealed and incubated at room temperature for 30 minutes. Finally, luminescence was measured on a TopCounter (Packard) in SPC (single photon counting) mode.

[2] = molecular target: T2, human amylin receptor (membranes from Amylin 3(a)/CRE-luc cells) (Homo sapiens, UniProt O60896+P30988); test: ASSAY (V) binding to the human amylin receptor (SPA, 125I-rat amylin);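 further: competition binding of cell membranes (35 ng/µL) mixed with SPA beads in 384-well plates at 40 µL total volume, read by scintillation counting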
T2 construct: expressed in transfected cells
T2 sequence (P30988 25-474): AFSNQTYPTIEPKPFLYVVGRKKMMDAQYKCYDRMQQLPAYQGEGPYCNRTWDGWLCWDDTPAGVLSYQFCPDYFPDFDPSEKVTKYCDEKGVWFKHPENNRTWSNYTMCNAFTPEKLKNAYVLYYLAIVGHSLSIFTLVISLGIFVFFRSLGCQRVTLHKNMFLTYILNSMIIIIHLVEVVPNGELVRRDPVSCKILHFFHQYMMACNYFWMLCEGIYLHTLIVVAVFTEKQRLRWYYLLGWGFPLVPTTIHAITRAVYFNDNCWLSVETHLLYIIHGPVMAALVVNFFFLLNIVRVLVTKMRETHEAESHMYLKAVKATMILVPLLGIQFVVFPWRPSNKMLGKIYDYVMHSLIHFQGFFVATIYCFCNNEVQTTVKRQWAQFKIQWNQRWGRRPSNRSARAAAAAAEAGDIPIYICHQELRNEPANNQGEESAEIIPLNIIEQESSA
T2 sequence (O60896 24-148 partner): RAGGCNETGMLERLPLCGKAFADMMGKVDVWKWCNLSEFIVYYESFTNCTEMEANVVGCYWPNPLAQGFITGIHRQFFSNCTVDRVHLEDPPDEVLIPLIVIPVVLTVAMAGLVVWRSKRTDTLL

[3] = molecular target: T3, rat amylin receptor (rat calcitonin receptor + rat RAMP 3) (Rattus norvegicus, UniProt P32214+Q9JJ73); test: ASSAY (VI) binding to the rat amylin receptor; settings: Table 7
T3 construct: expressed in transfected cells; host or cells: BHK tk'ts 13 (transient, FuGENE 6), membranes
T3 sequence (P32214 25-479 isoform P32214-2 limits assumed): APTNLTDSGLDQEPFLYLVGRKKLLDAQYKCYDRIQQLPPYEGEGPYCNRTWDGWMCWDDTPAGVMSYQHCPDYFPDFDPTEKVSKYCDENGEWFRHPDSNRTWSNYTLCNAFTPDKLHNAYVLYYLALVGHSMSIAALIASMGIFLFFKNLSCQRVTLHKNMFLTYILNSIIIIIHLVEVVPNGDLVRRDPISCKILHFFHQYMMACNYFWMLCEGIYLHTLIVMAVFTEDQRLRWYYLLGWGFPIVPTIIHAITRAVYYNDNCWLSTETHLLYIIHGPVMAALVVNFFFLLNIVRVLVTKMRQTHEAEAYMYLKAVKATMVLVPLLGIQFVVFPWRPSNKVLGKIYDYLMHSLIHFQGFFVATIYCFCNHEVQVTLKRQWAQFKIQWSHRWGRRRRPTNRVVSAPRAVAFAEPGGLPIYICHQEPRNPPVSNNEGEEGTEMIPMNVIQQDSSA
T3 sequence (Q9JJ73 23-147 partner): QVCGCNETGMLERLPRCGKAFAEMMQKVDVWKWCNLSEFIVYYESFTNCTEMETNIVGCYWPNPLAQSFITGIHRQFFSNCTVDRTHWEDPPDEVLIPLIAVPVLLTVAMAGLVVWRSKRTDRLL
Protocol: Assay (VI)—Determination of the Binding to the Rat Amylin Receptor […] The BHK tk′ts 13 cells were transiently transfected with rat calcitonin receptor using FuGENE® 6 (Roche), according to the manufacturer's recommendations. […] Approximately 48 hours after transfection, the cells were harvested and membranes were prepared.

[4] = ASSAY (III) ThT fibrillation assay for physical stability; assay type: physicochemical
Description: Assay (III)—ThT Fibrillation Assays for the Assessment of Physical Stability of Protein Formulations Low physical stability of a polypeptide may lead to amyloid fibril formation, which is observed as well-ordered, thread-like macromolecular structures in the sample eventually resulting in gel formation. This has traditionally been measured by visual inspection of the sample. However, that kind of measurement is very subjective and depending on the observer. Therefore, the application of a small molecule indicator probe is much more advantageous. Thioflavin T (ThT) is such a probe and has a distinct fluorescence signature when binding to fibrils [Naiki et al. (1989) Anal. […] LeVine (1999) Methods. Enzymol. […], 274-284]. The time course for fibril formation can be described by a sigmoidal curve with the following expression [Nielsen et al. (2001) Biochemistry 40, 6036-6046]; […] Here, F is the ThT fluorescence at the time t. The constant t0 is the time needed to reach 50% of maximum fluorescence. […] Few of those intermediates nucleate to form a template onto which further intermediates may assembly and the fibrillation proceeds. The lag-time corresponds to the interval in which the critical mass of nucleus is built up and the apparent rate constant is the rate with which the fibril itself is formed. Sample Preparation Samples were prepared freshly before each assay. Each sample composition is described in each example. The pH of the sample was adjusted to the desired value using appropriate amounts of concentrated NaOH and HClO4 or HCl. Thioflavin T was added to the samples from a stock solution in H2O to a final concentration of 1 μM. Sample aliquots of 200 μl were placed in a 96 well microtiter plate (Packard OptiPlate™96, white polystyrene). Usually, four or eight replica of each sample (corresponding to one test condition) were placed in one column of wells. The plate was sealed with Scotch Pad (Qiagen). Incubation and Fluorescence Measurement Incubation at given temperature, shaking and measurement of the ThT fluorescence emission were done in a Fluoroskan Ascent FL fluorescence platereader or Varioskan platereader (Thermo Labsystems). The temperature was adjusted to 37° C. The orbital shaking was adjusted to 960 rpm with an amplitude of 1 mm in all the presented data. Fluorescence measurement was done using excitation through a 444 nm filter and measurement of emission through a 485 nm filter. Each run was initiated by incubating the plate at the assay temperature for 10 min. The plate was measured every 20 minutes for a desired period of time. Between each measurement, the plate was shaken and heated as described. Data Handling The measurement points were saved in Microsoft Excel format for further processing and curve drawing and fitting was performed using GraphPad Prism. The background emission from ThT in the absence of fibrils was negligible. The data points are typically a mean of four or eight samples and shown with standard deviation error bars. Only data obtained in the same experiment (i.e. samples on the same plate) are presented in the same graph ensuring a relative measure of fibrillation between experiments. The data set may be fitted to Eq. […] However, since full sigmodial curves in this case are not always achieved during the measurement time, the degree of fibrillation is expressed as ThT fluorescence tabulated as the mean of the samples and shown with the standard deviation at various time points. Measurement of Initial and Final Concentrations The polypeptide concentration in each of the tested formulations were measured both before application in the ThT fibrillation assay (“Initial”) and after completion of the ThT fibrillation (“After ThT assay”). Concentrations were determined by reverse HPLC methods using a pramlintide standard as a reference. Before measurement after completion 150 μl was collected from each of the replica and transferred to an Eppendorf tube. These were centrifuged at 30000 G for 40 mins. […]

[5] = ASSAY (IV) determination of solubility; assay type: physicochemical
Protocol: Assay (IV)—Determination of Solubility
The polypeptide was dissolved in water at −500 nmol/ml and mixed 1:1 with a series of buffers (100 mM glycylglycine pH 3.0, 100 mM glycylglycine pH 4.0, 100 mM glycylglycine pH 5.0, 100 mM bistrispropane pH 6.0, 100 mM bistrispropane pH 6.5, 100 mM bistrispropane pH 7.0, 100 mM bistrispropane pH 7.5, 100 mM bistrispropane pH 8.0). After 18 hours at room temperature the samples were centrifuged and the polypeptide concentration determined by UPLC.

[6] = hCTR funct. EC50 over hAmylin-R funct. EC50
[7] = human functional selectivity: hCTR funct. EC50 / hAmylin-R funct. EC50
[8] = Table 5, selectivity, hCTR bind IC50 / hAmylin-R bind IC50
[9] = Table 7, human binding selectivity, included for comparison

Row | Structure (SMILES) | Ratio hCT/hAmylin funct. ([1]; hCTR funct. EC50 / hAmylin-R funct. EC50) | Ratio hCT/hAmylin funct. [1, 6] | Ratio hCT/hAmylin funct. [1, 7] | Ratio hCT/hAmylin binding [2, 8] | Ratio hCT/hAmylin binding [2, 9] | IC50 ([3]; binding to rat amylin receptor, read-out: rAmylin-R bind IC50) [nM] | Ratio rCT/rAmylin binding ([3]; rat binding selectivity, rCTR IC50 / rAmylin-R IC50) | Ratio hCT/hAmylin funct. ([1]; hCTR funct. EC50 divided by hAmylin-R funct. EC50) | ThT pH 4.0 lag time (h) [4] [h] | solubility at 18 h ([5]; bistrispropane buffer, pH 6.5, read-out: Solubility pH 6.5 Concentration) [µM] | solubility at 18 h ([5]; bistrispropane buffer, pH 7.5, read-out: Solubility pH 7.5 Concentration) [µM] | solubility at 18 h ([5]; bistrispropane buffer, pH 6.0, read-out: Solubility pH 6.0 Concentration) [µM] | solubility at 18 h ([5]; bistrispropane buffer, pH 7.0, read-out: Solubility pH 7.0 Concentration) [µM] | solubility at 18 h ([5]; bistrispropane buffer, pH 8.0, read-out: Solubility pH 8.0 Concentration) [µM] | solubility at 18 h ([5]; glycylglycine buffer, pH 3.0, read-out: Solubility pH 3.0 Concentration) [µM] | solubility at 18 h ([5]; glycylglycine buffer, pH 4.0, read-out: Solubility pH 4.0 Concentration) [µM] | solubility at 18 h ([5]; glycylglycine buffer, pH 5.0, read-out: Solubility pH 5.0 Concentration) [µM]
1 | CC(C)C[C@H](NC(=O)[C@H](CCCNC(=N)N)NC(=O)[C@H](CCC(N)=O)NC(=O)[C@@H](NC(=O)[C@H](C)NC(=O)[C@@H]1CSSC[C@H](NC(=O)[C@H](CCCCN)NC(=O)CC[C@H](NC(=O)CCCCCCCCCCCCCCCCCCC(=O)O)C(=O)O)C(=O)N[C@@H](CC(N)=O)C(=O)N[C@@H]([C@@H](C)O)C(=O)N[C@@H](C)C(=O)N[C@@H]([C@@H](C)O)C(=O)N1)[C@@H](C)O)C(=O)N[C@@H](C)C(=O)N[C@@H](CCC(=O)O)C(=O)N[C@@H](Cc1ccccc1)C(=O)N[C@@H](CC(C)C)C(=O)N[C@@H](CCCNC(=N)N)C(=O)N[C@@H](Cc1c[nH]cn1)C(=O)N[C@@H](CO)C(=O)N[C@@H](CO)C(=O)N1CCC[C@H]1C(=O)N[C@@H](CC(N)=O)C(=O)N[C@@H](Cc1ccccc1)C(=O)NCC(=O)N[C@@H](C)C(=O)N1CCC[C@H]1C(=O)N[C@@H](CC(C)C)C(=O)N[C@@H](CO)C(=O)N[C@@H](CO)C(=O)N[C@H](C(=O)N[C@@H](CC(N)=O)C(=O)N[C@H](C(=O)NCC(=O)N[C@@H](CO)C(=O)N[C@@H](CC(N)=O)C(=O)N[C@H](C(=O)N1CCC[C@H]1C(N)=O)[C@@H](C)O)C(C)C)[C@@H](C)O [Example 5] ({C20 diacid-γGlu}-KCNTATCATQRLAEFLRHSSPNFGAPLSSTNVGSNTP-NH2; disulfide 2-7) | 1.0 | 1.0 | 1.0 | 1.4 | 1.4 | 1.3 | 3.6 | – | – | – | – | – | – | – | – | – | –
2 | CC[C@H](C)[C@H](NC(=O)[C@H](C)NC(=O)CNC(=O)[C@H](Cc1ccccc1)NC(=O)[C@H](CC(N)=O)NC(=O)[C@@H]1CCCN1C(=O)[C@H](CO)NC(=O)[C@H](CO)NC(=O)[C@H](Cc1c[nH]cn1)NC(=O)[C@H](CCCNC(=N)N)NC(=O)[C@H](CC(C)C)NC(=O)[C@H](Cc1ccccc1)NC(=O)[C@H](CCC(=O)O)NC(=O)[C@H](C)NC(=O)[C@H](CC(C)C)NC(=O)[C@H](CCCNC(=N)N)NC(=O)[C@H](CCC(N)=O)NC(=O)[C@@H](NC(=O)[C@H](C)NC(=O)[C@@H]1CSSC[C@H](NC(=O)[C@H](CCCCN)NC(=O)CC[C@H](NC(=O)CCCCCCCCCCCCCCCCCCC(=O)O)C(=O)O)C(=O)N[C@@H](CC(N)=O)C(=O)N[C@@H]([C@@H](C)O)C(=O)N[C@@H](C)C(=O)N[C@@H]([C@@H](C)O)C(=O)N1)[C@@H](C)O)C(=O)N1CCC[C@H]1C(=O)N[C@@H](CO)C(=O)N[C@@H](CO)C(=O)N[C@H](C(=O)N[C@@H](CC(N)=O)C(=O)N[C@H](C(=O)NCC(=O)N[C@@H](CO)C(=O)N[C@@H](CC(N)=O)C(=O)N[C@H](C(=O)N[C@@H](Cc1ccc(O)cc1)C(N)=O)[C@@H](C)O)C(C)C)[C@@H](C)O [Example 9] | – | 7.4 | 7.4 | 8.0 | 8.0 | – | – | 7.4 | 19 | ≥ 200 | ≥ 200 | ≥ 200 | ≥ 200 | ≥ 200 | ≥ 200 | ≥ 200 | ≥ 200
